Data taken from patent US8497254B2, “Oxadiazole derivatives as sphingosine 1-phosphate (S1P) receptor modulators” (Allergan, Inc., priority 2010, dated 2013).

Biological target: T1, human S1P1 receptor (Homo sapiens, UniProt P21453)
T1 construct: expressed in transfected cells; membranes were used
Experiment: GTP γ35S binding assay for S1P1 activity
Type: biochemical
Details: activity potency from GTP γ35S binding; membrane protein from cells stably expressing the S1P1 receptor; 30 min at 25° C.
Experimental: Compounds were synthesized and tested for S1P1 activity using the GTP γ^35S binding assay. These compounds may be assessed for their ability to activate or block activation of the human S1P1 receptor in cells stably expressing the S1P1 receptor.
GTP γ^35S binding was measured in the medium containing (mM) HEPES 25, pH 7.4, MgCl2 10, NaCl 100, dithitothreitol 0.5, digitonin 0.003%, 0.2 nM GTP γ^35S, and 5 μg membrane protein in a volume of 150 μl. Test compounds were included in the concentration range from 0.08 to 5,000 nM unless indicated otherwise. Membranes were incubated with 100 μM 5′-adenylylimmidodiphosphate for 30 min, and subsequently with 10 μM GDP for 10 min on ice. Drug solutions and membrane were mixed, and then reactions were initiated by adding GTP γ^35S and continued for 30 min at 25° C. Reaction mixtures were filtered over Whatman GF/B filters under vacuum, and washed three times with 3 mL of ice-cold buffer (HEPES 25, pH7.4, MgCl2 10 and NaCl 100). Filters were dried and mixed with scintillant, and counted for ^35S activity using a β-counter. Agonist-induced GTP γ^35S binding was obtained by subtracting that in the absence of agonist. Binding data were analyzed using a non-linear regression method. In case of antagonist assay, the reaction mixture contained 10 nM S1P in the presence of test antagonist at concentrations ranging from 0.08 to 5000 nM.

T1 sequence (P21453 whole entry): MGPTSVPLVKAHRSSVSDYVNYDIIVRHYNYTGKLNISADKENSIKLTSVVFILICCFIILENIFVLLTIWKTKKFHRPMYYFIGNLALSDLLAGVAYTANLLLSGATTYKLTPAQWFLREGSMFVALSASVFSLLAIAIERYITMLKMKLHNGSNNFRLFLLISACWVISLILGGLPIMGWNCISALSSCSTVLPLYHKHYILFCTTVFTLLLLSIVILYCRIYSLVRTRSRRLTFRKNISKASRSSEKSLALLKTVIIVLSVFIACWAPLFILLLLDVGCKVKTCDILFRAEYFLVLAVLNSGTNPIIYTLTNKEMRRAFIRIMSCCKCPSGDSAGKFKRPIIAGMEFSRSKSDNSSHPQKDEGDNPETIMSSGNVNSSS

Row | SMILES | EC50 [µM]
1 | Cc1ccc(CC(c2cc(F)cc(F)c2)c2nc(-c3ccc(CNCCC(=O)O)cc3)no2)cc1C (stereo not shown) [Compound 10, 3-[(4-{5-[1-(3,5-difluorophenyl)-2-(3,4-dimethylphenyl)ethyl]-1,2,4-oxadiazol-3-yl}benzyl)amino]propanoic acid] | 1.1
2 | Cc1ccc(CC(c2cccc(Cl)c2)c2nc(-c3ccc(CNCCC(=O)O)cc3)no2)cc1C (stereo not shown) [Compound 1, 3-[(4-{5-[1-(3-chlorophenyl)-2-(3,4-dimethylphenyl)ethyl]-1,2,4-oxadiazol-3-yl}benzyl)amino]propanoic acid] | 0.312
3 | Cc1ccc(CC(c2cccc(F)c2)c2nc(-c3ccc(CNCCCP(=O)(O)O)cc3)no2)cc1C (stereo not shown) [Compound 4, {3-[(4-{5-[2-(3,4-dimethylphenyl)-1-(3-fluorophenyl)ethyl]-1,2,4-oxadiazol-3-yl}benzyl)amino]propyl}phosphonic acid] | 0.00404
4 | Cc1ccc(CC(c2cccc(C(F)(F)F)c2)c2nc(-c3ccc(CNCCC(=O)O)cc3)no2)cc1C (stereo not shown) [Compound 12, 3-{[4-(5-{2-(3,4-dimethylphenyl)-1-[3-(trifluoromethyl)phenyl]ethyl}-1,2,4-oxadiazol-3-yl)benzyl]amino}propanoic acid] | 0.336
5 | Cc1ccc(NC(c2cccc(Cl)c2)c2nc(-c3ccc(CNCCC(=O)O)cc3)no2)cc1C (stereo not shown) [3-{[4-(5-{(3-chlorophenyl)[(3,4-dimethylphenyl)amino]methyl}-1,2,4-oxadiazol-3-yl)benzyl]amino}propanoic acid] | 0.0015
6 | Cc1ccc(CC(c2ccc(Cl)cc2)c2nc(-c3ccc(CCC(=O)O)cc3C)no2)cc1C (stereo not shown) [Compound 7, 3-(4-{5-[1-(4-chlorophenyl)-2-(3,4-dimethylphenyl)ethyl]-1,2,4-oxadiazol-3-yl}-3-methylphenyl)propanoic acid] | 0.0893
7 | Cc1ccc(CC(c2cc(F)cc(F)c2)c2nc(-c3ccc(CNCCCP(=O)(O)O)cc3)no2)cc1C (stereo not shown) [Compound 11, {3-[(4-{5-[1-(3,5-difluorophenyl)-2-(3,4-dimethylphenyl)ethyl]-1,2,4-oxadiazol-3-yl}benzyl)amino]propyl}phosphonic acid] | 0.00527
8 | Cc1ccc(CC(c2cccc(Cl)c2)c2nc(-c3ccc(CCC(=O)O)cc3C)no2)cc1C (stereo not shown) [Compound 6, 3-(4-{5-[1-(3-chlorophenyl)-2-(3,4-dimethylphenyl)ethyl]-1,2,4-oxadiazol-3-yl}-3-methylphenyl)propanoic acid] | 1.06
9 | Cc1ccc(CC(c2cccc(F)c2)c2nc(-c3ccc(CNCCC(=O)O)cc3)no2)cc1C (stereo not shown) [Compound 3, 3-[(4-{5-[2-(3,4-dimethylphenyl)-1-(3-fluorophenyl)ethyl]-1,2,4-oxadiazol-3-yl}benzyl)amino]propanoic acid] | 0.598
10 | Cc1cccc(CC(c2cccc(Cl)c2)c2nc(-c3ccc(CCC(=O)O)cc3C)no2)c1 (stereo not shown) [Compound 8, 3-(4-{5-[1-(3-chlorophenyl)-2-(3-methylphenyl)ethyl]-1,2,4-oxadiazol-3-yl}-3-methylphenyl)propanoic acid] | 0.0171
11 | Cc1ccc(CC(c2cccc(Cl)c2)c2nc(-c3ccc(CNCCCP(=O)(O)O)cc3)no2)cc1C (stereo not shown) [Compound 2, {3-[(4-{5-[1-(3-chlorophenyl)-2-(3,4-dimethylphenyl)ethyl]-1,2,4-oxadiazol-3-yl}benzyl)amino]propyl}phosphonic acid] | 0.00377
12 | Cc1ccc(CC(c2cccc(Cl)c2)c2nc(-c3ccc(C(=O)NCCC(=O)O)cc3)no2)cc1C (stereo not shown) [Compound 9, 3-[(4-{5-[1-(3-chlorophenyl)-2-(3,4-dimethylphenyl)ethyl]-1,2,4-oxadiazol-3-yl}benzoyl)amino]propanoic acid] | 0.911
13 | Cc1cc(C)cc(C(Cc2ccc(C)c(C)c2)c2nc(-c3ccc(CNCCC(=O)O)cc3)no2)c1 (stereo not shown) [Compound 13, 3-[(4-{5-[2-(3,4-dimethylphenyl)-1-(3,5-dimethylphenyl)ethyl]-1,2,4-oxadiazol-3-yl}benzyl)amino]propanoic acid] | 0.535
